# Source: patent US20050124618A1, “Methods of modulating angiogenesis and cancer cell proliferation” (priority 2003, published 2005)
# “Also recorded” adds a separate entry of the source.
# Tests used:
# [1] = system: HUVECs; experiment: Proliferation of normal HUVECs (comparison with U251); format: cell-based, human; settings: 10 μM HET0016, 48 hrs; DDMS concentration not given
# Protocol: (§1) Mean values±SD from three separate experiments, each performed in triplicate, are presented. *** indicates p<0.001 from the respective control values.
# (§2) Cell Proliferation Assays: Proliferation studies were performed with cultures plated at a density that ensured exponential growth for at least 5 days. Growth medium was generally replaced by serum-free medium 24 hr after plating. Cells were treated with various concentrations of a given compounds for 24 or 48 hr as described in the Methods. […] Organic solvent never exceeded 0.1% of total culture volume. Cells were harvested by exposure to 0.05% trypsin/EDTA and counted using a hemocytometer.
# [2] = system: primary human keratinocytes; experiment: Proliferation of primary human keratinocytes (comparison with U251); format: cell-based; settings: 10 μM HET0016, 48 hrs; DDMS concentration not given
# Protocol: as §1, §2
# [3] = system: CYP4A11 mRNA; experiment: RT-PCR of CYP4A11 mRNA in U251 cultures; format: cell-based, human; settings: 100 μM DDMS
# Protocol: EtOH-treated cultures were used as solvent controls. Briefly, total RNA was isolated with Trizol reagent (Invitrogen) and 1-2 μg RNA was used to synthesize cDNA using a First Strand synthesis kit (Invitrogen). We used PCR primers that specifically recognize CYP4A11, and β-actin-specific primers. A 1 μCi ^32P per sample was added to Platinum PCR Supermix (Invitrogen). The PCR conditions used to amplify CYP4A 11 and β-actin consisted of a precycle of 95° C for 3 min followed by 35 cycles of 95° C for 45 s, 52° C. for 30 s, and 72° C. for 2 min, with final extension at 72° C. for 10 min. The primers used were: β-actin forward primer, 5′-TGCGTGACATTAAGGAGAAG-3′ (SEQ ID NO:3); β-actin reverse primer, 5′-GCT CGT AGC TCT TCT CCA-3′ (SEQ ID NO:4); CYP4A11 forward primer, 5′-CCACCTGGACCAGAGGCCCTACACCACC-3′ (SEQ ID NO:5); CYP4A11 reverse primer, 5′-AGGATATGGGCAGACAGGAA-3′(SEQ ID NO:6). PCR products were subjected to electrophoresis in 5% bis-acrylamide gels and visualized by autoradiography.
# [4] = system: CYP4A; settings: read-out: IC50 for inhibition of CYP4A enzyme activity; cited from earlier work
# [5] = system: 9L rat gliosarcoma cells; experiment: 9L cell proliferation assay (cell counting); format: cell-based
# Protocol: (§3) Culture Conditions: 9L rat gliosarcoma cells were purchased from ATC (Gaithersburg, Md.) and were maintained in DMEM (Invitrogen) supplemented with 10% heat-inactivated fetal bovine serum (FBS), penicillin (10 IU/ml), streptomycin (10 μg/ml) and 10% non-essential amino acids (all purchased from Invitrogen). Cells were maintained at 37° C. in a humidified incubator containing 5% CO2. They were grown in medium containing 10% FBS, which was then replaced with serum-free medium (give type and source) where 9L cells grow exponentially.
# Cell Proliferation Assays: Proliferation studies were performed with cultures plated at a density that ensured exponential growth for at least 5 days. Growth medium were generally replaced by serum free medium 24 hr after plating. […] The concentration of the ethanol added to the media never exceeded 0.1%. Cells were harvested by exposure to a solution of 0.05% Trypsin/EDTA and counted using a hemocytometer.
# [6] = system: rat cornea; experiment: Rat cornea pocket angiogenesis assay (growth factor pellets); format: in vivo
# Protocol: (i) Preparation of sustained-release polymer: Sustained-release polymer pellets were prepared by making a 1:1 mix of a 12% solution in ethanol of the polymer (Hydron polyhydroxyethylmethacrylate), with saline containing the growth factors. The growth factors bFGF, VEGF, and EGF were dissolved at a concentration of 125 ng/μl. […] 2 μl of these solutions were added to each pellet. Thus, a pellet containing 250 ng of a single growth factor was implanted at random in the right or left eye. The other eye was implanted with a pellet containing the same dose of growth factor+HET0016. In some rats the pellet contained VEGF alone and VEGF+DDMS. 20 μg of the stable 20-HETE agonist analog WIT003 was implanted in one eye to determine whether it induces angiogenesis. […] 9 μl of the 1:1 Hydron/treatment mixture was placed on the ends of 1.5-cm rods. Each pellet contained 250 ng of its respective growth factor. For bFGF we used sucralfate to stabilize and allow sustained release of this growth factor (Volkin D B et al., Biochim Biophys Acta 1993, 1203:18-26). After drying the pellets for 1 hour, they were ready to be implanted into the cornea of rats.
# (ii) Pellet implantation: The rats were anesthetized IM with ketamine (80 mg/kg) and xylazine (10 mg/kg). The eyes were topically anesthetized with 0.5% proparacaine (Ophthetic, Alcon, Tex.) and the globes proptosed with a jeweler's forceps. Using an operating microscope, a central intrastromal linear keratotomy, approximately 1.5 mm in length, was performed with a surgical blade (Bard-Parker #11; Becton Dickinson, Franklin Lake, N.Y.) parallel to the insertion of the lateral rectus muscle. A curved iris spatula (No. 10093-13, Fine Science Tools, Belmont, Calif.) approximately 1.5 mm wide and 5 mm long was inserted under the lip of the incision and gently pushed through the stroma toward the temporal limbus of the eye. The distance between the limbus and the base of the pocket was kept at 1.0±0.1 mm. The pellet was advanced to the temporal end of the pocket. Antibiotic ointment (erythromycin) was applied to the anterior surface of the eye.
# (iv) Quantitation of corneal neovascularization: Seven days after pellet implantation, the rats were deeply anesthetized as previously described with ketamine and xylazine. The left ventricle was cannulated and the animal was perfused with 20-25 ml saline through the left ventricle followed by 20-25 ml India ink (waterproof drawing ink, Sanford, Bellwood, Ill.). The eyes were marked for orientation, enucleated and placed in 4% formalin for 24 hours. The cornea was dissected free from the surrounding globe and underlying iris, bisected, and loosely mounted between two glass slides, thus gently flattening the cornea. These flat mounts were examined microscopically using a Nikon Diaphot Epi-fluor 2 microscope attached to a CCD video camera and the images were digitized and saved using a computer.
# Neovascularization was determined by comparing total vessel length in the control and experimental eyes. Vessel length was determined by tracing each vessel from the limbus to the pellet. Total length is the sum of these values in pixels and was determined using conventional image analysis software (Sigma Scan Pro, SPSS, Chicago, Ill.)
# [7] = system: U251 human glioma cells; experiment: U251 cell proliferation assay (cell counting); format: cell-based
# Protocol: as §3, with “Cells” for “9L rat gliosarcoma cells”, “routinely” for “purchased from ATC (Gaithersburg, Md.) and were”, “medium” for “medium (give type and source)”, “U251” for “9L”, “exponentially. Treatments were initiated one day after serum removal.” for “exponentially.”
# as §2
smiles,measurement,setting,value
"CS(=O)(=O)NC(=O)CCCCCCCCCC=C(Br)Br [DDMS, dibromododecenyl methylsulfonimide]",effect on basal growth or proliferation of normal HUVECs,[1],Neither DDMS or HET0016 had any effect
same,effect on basal growth or proliferation of primary human keratinocytes,[2],Neither DDMS or HET0016 had any effect
same,CYP4A11 transcript levels,[3],not affected
same,IC50,[4],~10 µM
same,effect on 9L cell number,[5]; DDMS 10 μM,significant reduction in cell number
same,inhibition of 9L cell proliferation,"[5]; DDMS, concentration not given",60%
same,angiogenic response to inhibitor alone,"[6]; 20 μg HET0016 or 10 μg DDMS per pellet, no growth factor",Neither HET0016 nor DDMS alone elicited a response different from saline
same,effect on the angiogenic response to VEGF,[6]; VEGF 250 ng/pellet + 10 μg DDMS,as effective as 20 μg HET0016; also recorded: completely inhibits the angiogenic response; also recorded: abolished; also recorded: inhibit angiogenic responses to VEGF
same,blockade of U251 cell proliferation,"[7]; DDMS, concentration not given",about 60%
same,concentration dependence of inhibition of U251 proliferation,[7]; various concentrations,inhibited the proliferation of U251 cancer cells in a dose-dependent manner; also recorded: inhibited the proliferation of U251 cells in a concentration dependent manner
